# Source: PMC10257182, “Discovery of senolytics using machine learning” (Nature Communications, 2023)
# Structures can show the parent of a compound that is named as a salt. Where two headings read alike, the source gives them in different places.
# Tests used:
# Format in all cases: cell-based, human
# [1] = tested on: senescent IMR90 ER:RAS cells (4-OHT-induced); experiment: Nuclei count (Hoechst, high content imaging) senolytic assay, oncogene-induced senescence (OIS) model, senescent cells; settings: Homo sapiens
# How it was run: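 Readout is automated image-based counting of Hoechst-stained nuclei per well, with loss of cells relative to untreated wells taken as cell death. Senescent (4-OHT, 100 nM) and control IMR90 ER:RAS cells were exposed to compounds for 72 h at 10 nM to 10 μM final.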
# [2] = tested on: senescent A549 cells (etoposide-induced); experiment: Nuclei count senolytic assay, therapy-induced senescence (TIS) model, senescent cells; settings: Homo sapiens, A549, Senescent cells, mean, read-out: Mean % Cell Survival; for viability at 10 µM: log (dose) [M] -5; for viability at 4.68 µM: log (dose) [M] -5.33; for viability at 2.19 µM: log (dose) [M] -5.66; for viability at 1 µM: log (dose) [M] -6; for viability at 0.468 µM: log (dose) [M] -6.33; for viability at 0.219 µM: log (dose) [M] -6.66; for viability at 0.1 µM: log (dose) [M] -7; for viability at 0.0468 µM: log (dose) [M] -7.33; for viability at 0.0219 µM: log (dose) [M] -7.66; for viability at 0.01 µM: log (dose) [M] -8
# How it was run: (§1)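 Read-out is the imaged count of Hoechst 33342-stained nuclei (2 μg/ml final) in fixed, permeabilised A549 cells. Senescent cells had received etoposide at 100 μM for 48 h plus three days recovery in normal media. Compound exposure lasted 72 h across a 10-point […] range, 10 μM to 10 nM.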
# [3] = tested on: non-senescent control A549 cells; experiment: Nuclei count senolytic assay, TIS model, non-senescent control cells; settings: Homo sapiens, A549, Control cells, mean, read-out: Mean % Cell Survival; for viability at 10 µM: log (dose) [M] -5; for viability at 4.68 µM: log (dose) [M] -5.33; for viability at 2.19 µM: log (dose) [M] -5.66; for viability at 1 µM: log (dose) [M] -6; for viability at 0.468 µM: log (dose) [M] -6.33; for viability at 0.219 µM: log (dose) [M] -6.66; for viability at 0.1 µM: log (dose) [M] -7; for viability at 0.0468 µM: log (dose) [M] -7.33; for viability at 0.0219 µM: log (dose) [M] -7.66; for viability at 0.01 µM: log (dose) [M] -8
# How it was run: as §1
# [4] = IMR-90, 72 h, Senescent, log (dose) [M] -5, 72 h, mean n=3 (Fig 3C), read-out: Mean % Cell Survival
# [5] = IMR-90, 72 h, Senescent, log (dose) [M] -5.33, 72 h, mean n=3 (Fig 3C), read-out: Mean % Cell Survival
# [6] = IMR-90, 72 h, Senescent, log (dose) [M] -5.66, 72 h, mean n=3 (Fig 3C), read-out: Mean % Cell Survival
# [7] = IMR-90, 72 h, Senescent, log (dose) [M] -6, 72 h, mean n=3 (Fig 3C), read-out: Mean % Cell Survival
# [8] = IMR-90, 72 h, Senescent, log (dose) [M] -6.33, 72 h, mean n=3 (Fig 3C), read-out: Mean % Cell Survival
# [9] = IMR-90, 72 h, Senescent, log (dose) [M] -6.66, 72 h, mean n=3 (Fig 3C), read-out: Mean % Cell Survival
# [10] = IMR-90, 72 h, Senescent, log (dose) [M] -7, 72 h, mean n=3 (Fig 3C), read-out: Mean % Cell Survival
# [11] = IMR-90, 72 h, Senescent, log (dose) [M] -7.33, 72 h, mean n=3 (Fig 3C), read-out: Mean % Cell Survival
# [12] = IMR-90, 72 h, Senescent, log (dose) [M] -7.66, 72 h, mean n=3 (Fig 3C), read-out: Mean % Cell Survival
# [13] = IMR-90, 72 h, Senescent, log (dose) [M] -8, 72 h, mean n=3 (Fig 3C), read-out: Mean % Cell Survival
structure (smiles),measurement,setting,value
"CC[C@]1(O)C[C@@H]2CN(CCc3c([nH]c4ccccc34)[C@@](C(=O)OC)(c3cc4c(cc3OC)N(C)[C@H]3[C@@](O)(C(=O)OC)[C@H](OC(C)=O)[C@]5(CC)C=CCN6CC[C@]43[C@@H]65)C2)C1 [Vinblastine sulfate, vinblastine sulfate, reference compound]",viability at 10 µM,[1]; [4],54.4%
same,viability at 4.677 µM,[1]; [5],77.2%
same,viability at 2.188 µM,[1]; [6],58.1%
same,viability at 1 µM,[1]; [7],67.1%
same,viability at 0.4677 µM,[1]; [8],61.7%
same,viability at 0.2188 µM,[1]; [9],87%
same,viability at 0.1 µM,[1]; [10],73.9%
same,viability at 0.04677 µM,[1]; [11],108%
same,viability at 0.02188 µM,[1]; [12],59.7%
same,viability at 0.01 µM,[1]; [13],92.6%
same,viability at 1 µM,"[1]; IMR-90, Senescent cells, log (dose) [M] -6, individual replicates, SUP FIG 4C, read-out: % Cell Survival",70.9%
same,viability at 10 µM,"[1]; IMR-90, Senescent, log (dose) [M] -5, read-out: % Cell Survival",89.1%
same,viability at 4.677 µM,"[1]; IMR-90, Senescent, log (dose) [M] -5.33, read-out: % Cell Survival",88%
same,viability at 2.188 µM,"[1]; IMR-90, Senescent, log (dose) [M] -5.66, read-out: % Cell Survival",86.9%
same,viability at 1 µM,"[1]; IMR-90, Senescent, log (dose) [M] -6, read-out: % Cell Survival",68.2%
same,viability at 0.4677 µM,"[1]; IMR-90, Senescent, log (dose) [M] -6.33, read-out: % Cell Survival",96.2%
same,viability at 0.2188 µM,"[1]; IMR-90, Senescent, log (dose) [M] -6.66, read-out: % Cell Survival",103%
same,viability at 0.1 µM,"[1]; IMR-90, Senescent, log (dose) [M] -7, read-out: % Cell Survival",109%
same,viability at 0.04677 µM,"[1]; IMR-90, Senescent, log (dose) [M] -7.33, read-out: % Cell Survival",92.4%
same,viability at 0.02188 µM,"[1]; IMR-90, Senescent, log (dose) [M] -7.66, read-out: % Cell Survival",112%
same,viability at 0.01 µM,"[1]; IMR-90, Senescent, log (dose) [M] -8, read-out: % Cell Survival",114%
same,viability at 10 µM,[2],88.8%
same,viability at 4.68 µM,[2],83.2%
same,viability at 2.19 µM,[2],90.4%
same,viability at 1 µM,[2],72.2%
same,viability at 0.468 µM,[2],92.1%
same,viability at 0.219 µM,[2],97.3%
same,viability at 0.1 µM,[2],103%
same,viability at 0.0468 µM,[2],99.9%
same,viability at 0.0219 µM,[2],103%
same,viability at 0.01 µM,[2],104%
same,viability at 10 µM,[3],47.4%
same,viability at 4.68 µM,[3],46.3%
same,viability at 2.19 µM,[3],48.5%
same,viability at 1 µM,[3],47%
same,viability at 0.468 µM,[3],45.9%
same,viability at 0.219 µM,[3],49.9%
same,viability at 0.1 µM,[3],52.9%
same,viability at 0.0468 µM,[3],66.7%
same,viability at 0.0219 µM,[3],69.2%
same,viability at 0.01 µM,[3],78.7%
"CO[C@H]1C[C@@H]2CC[C@@H](C)[C@@](O)(O2)C(=O)C(=O)N2CCCC[C@H]2C(=O)O[C@H]([C@H](C)C[C@@H]2CC[C@H](n3cnnn3)[C@H](OC)C2)CC(=O)[C@H](C)/C=C(\C)[C@@H](O)[C@@H](OC)C(=O)[C@H](C)C[C@H](C)/C=C/C=C/C=C/1C [Zotarolimus, zotarolimus, reference compound]",viability at 10 µM,[1]; [4],111%
same,viability at 4.677 µM,[1]; [5],115%
same,viability at 2.188 µM,[1]; [6],102%
same,viability at 1 µM,[1]; [7],113%
same,viability at 0.4677 µM,[1]; [8],95.4%
same,viability at 0.2188 µM,[1]; [9],95.9%
same,viability at 0.1 µM,[1]; [10],88.4%
same,viability at 0.04677 µM,[1]; [11],106%
same,viability at 0.02188 µM,[1]; [12],116%
same,viability at 0.01 µM,[1]; [13],104%
same,viability at 10 µM,[2],138%
same,viability at 4.68 µM,[2],160%
same,viability at 2.19 µM,[2],123%
same,viability at 1 µM,[2],143%
same,viability at 0.468 µM,[2],130%
same,viability at 0.219 µM,[2],174%
same,viability at 0.1 µM,[2],155%
same,viability at 0.0468 µM,[2],136%
same,viability at 0.0219 µM,[2],127%
same,viability at 0.01 µM,[2],84.3%
same,viability at 10 µM,[3],84.8%
same,viability at 4.68 µM,[3],92.5%
same,viability at 2.19 µM,[3],84.4%
same,viability at 1 µM,[3],76.7%
same,viability at 0.468 µM,[3],92.9%
same,viability at 0.219 µM,[3],91%
same,viability at 0.1 µM,[3],95.4%
same,viability at 0.0468 µM,[3],98.8%
same,viability at 0.0219 µM,[3],96.8%
same,viability at 0.01 µM,[3],109%
